Test results published in ChEMBL document CHEMBL5053508, “Optimization of Beclin 1-Targeting Stapled Peptides by Staple Scanning Leads to Enhanced Antiproliferative Potency in Cancer Cells” (J Med Chem, 2021).
Activity calls are given as the source filed them. The calls are words filed in the database; no cut-off is given here.

What was measured:
Beclin-1 = Beclin-1 (Homo sapiens, UniProt Q14457); assay: Binding affinity to Beclin 1 coiled coil domain (unknown origin) by isothermal titration calorimetry assay
SK-BR-3 [1] = assay: Induction of apoptosis in human SK-BR-3 cells assessed as increase in cleaved PARP expression at 0.15 uM incubated for 48 hrs by western blot analysis; format: functional, cell-based
SK-BR-3 [2] = assay: Induction of apoptosis in human SK-BR-3 cells assessed as increase in cleaved caspase-3 expression at 0.15 uM incubated for 48 hrs by western blot analysis; format: functional, cell-based
HEK-293T = assay: Cytotoxicity against HEK293T cells assessed as reduction in cell viability at 10 to 20 uM measured after 24 hrs by trypan blue exclusion assay; format: cell-based; conditions: human, dose 10-20 µM
SK-BR-3 [3] = assay: Antiproliferative activity against human SK-BR-3 cells assessed as reduction in cell growth incubated for 5 days by trypan blue exclusion assay; format: functional, cell-based; conditions: time 5.0 day
SK-BR-3 [4] = assay: Antiproliferative activity against human SK-BR-3 cells assessed as reduction of cell growth measured after 24 hrs by trypan blue exclusion assay; conditions: SK-BR-3, 24 h

Chain of Beclin-1 (Q14457 whole entry, the tested form may be a part): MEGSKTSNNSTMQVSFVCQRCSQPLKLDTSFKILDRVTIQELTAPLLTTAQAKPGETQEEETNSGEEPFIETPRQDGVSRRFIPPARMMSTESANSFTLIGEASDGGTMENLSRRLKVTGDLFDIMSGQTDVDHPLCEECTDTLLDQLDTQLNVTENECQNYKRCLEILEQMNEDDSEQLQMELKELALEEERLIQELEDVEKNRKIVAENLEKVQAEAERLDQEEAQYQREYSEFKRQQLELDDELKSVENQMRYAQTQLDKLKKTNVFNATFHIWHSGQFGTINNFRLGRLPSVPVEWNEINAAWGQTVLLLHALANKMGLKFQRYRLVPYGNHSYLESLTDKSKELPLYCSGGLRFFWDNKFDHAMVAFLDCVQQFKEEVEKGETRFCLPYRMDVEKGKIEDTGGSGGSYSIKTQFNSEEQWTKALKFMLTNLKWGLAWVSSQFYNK

## CC(=O)N[C@@H](Cc1ccc(O)cc1)C(=O)NCC(=O)N[C@@H](CCCNC(=N)N)C(=O)N[C@@H](CCCCN)C(=O)N[C@@H](CCCCN)C(=O)N[C@@H](CCCNC(=N)N)C(=O)N[C@@H](CCCNC(=N)N)C(=O)N[C@@H](CCC(N)=O)C(=O)N[C@@H](CCCNC(=N)N)C(=O)N[C@@H](CCCNC(=N)N)C(=O)N[C@@H](CCCNC(=N)N)C(=O)N[C@@H](CCCNC(=N)N)C(=O)N[C@@H](CC(C)C)C(=O)N[C@@H](CC(C)C)C(=O)N[C@@H](CCC(N)=O)C(=O)N[C@@H]1CCCCCC/C=C/CCC[C@@H](C(=O)N[C@@H](CCCNC(=N)N)C(=O)N[C@@H](CO)C(=O)N[C@H](C(N)=O)C(C)C)NC(=O)[C@H](CCCCN)NC(=O)[C@H](CC(C)C)NC(=O)[C@H](C(C)C)NC(=O)[C@H]([C@@H](C)O)NC(=O)[C@H](CCCCN)NC(=O)[C@H](CC(C)C)NC1=O
Beclin-1
  Activity: inactive

## CC[C@H](C)[C@H](NC(=O)[C@H](Cc1ccccc1)NC(=O)[C@H](CCCNC(=N)N)NC(=O)[C@H](CCCNC(=N)N)NC(=O)[C@H](CCCNC(=N)N)NC(=O)[C@H](CCCNC(=N)N)NC(=O)[C@H](CCC(N)=O)NC(=O)[C@H](CCCNC(=N)N)NC(=O)[C@H](CCCNC(=N)N)NC(=O)[C@H](CCCCN)NC(=O)[C@H](CCCCN)NC(=O)[C@H](CCCNC(=N)N)NC(=O)CNC(=O)[C@H](Cc1ccc(O)cc1)NC(C)=O)C(=O)N[C@@H](CCC(N)=O)C(=O)N[C@@H]1CCCCCC/C=C/CCC[C@@H](C(=O)N[C@@H](CCCNC(=N)N)C(=O)N[C@@H](CO)C(=O)N[C@H](C(N)=O)C(C)C)NC(=O)[C@H](CCCCN)NC(=O)[C@H]([C@@H](C)CC)NC(=O)[C@H](C(C)C)NC(=O)[C@H](C(C)C)NC(=O)[C@H](CCC(=O)O)NC(=O)[C@H](CC(C)C)NC1=O
Beclin-1
  Activity: inactive

## CC[C@H](C)[C@H](NC(=O)[C@H](CC(C)C)NC(=O)[C@H](C)NC(=O)[C@H](CCCNC(=N)N)NC(=O)[C@H](CCCNC(=N)N)NC(=O)[C@H](CCCNC(=N)N)NC(=O)[C@H](CCC(N)=O)NC(=O)[C@H](CCCNC(=N)N)NC(=O)[C@H](CCCNC(=N)N)NC(=O)[C@H](CCCCN)NC(=O)[C@H](CCCCN)NC(=O)[C@H](CCCNC(=N)N)NC(=O)CNC(=O)[C@H](Cc1ccc(O)cc1)NC(C)=O)C(=O)N[C@@H](CCC(N)=O)C(=O)N[C@@H]1CCCCCC/C=C/CCC[C@@H](C(=O)N[C@@H](CCCNC(=N)N)C(=O)N[C@@H](CCCCN)C(=O)N[C@@H](CCCNC(=N)N)C(N)=O)NC(=O)[C@H](CCCCN)NC(=O)[C@H](CCC(=O)O)NC(=O)[C@H](C(C)C)NC(=O)[C@H](CC(=O)O)NC(=O)[C@H](CCC(=O)O)NC(=O)[C@H](CCC(N)=O)NC1=O
Beclin-1
  Kd: 311 µM

## CC[C@H](C)[C@H](NC(=O)[C@H](CC(C)C)NC(=O)[C@H](CCCNC(=N)N)NC(=O)[C@H](CCCNC(=N)N)NC(=O)[C@H](CCCNC(=N)N)NC(=O)[C@H](CCCNC(=N)N)NC(=O)[C@H](CCC(N)=O)NC(=O)[C@H](CCCNC(=N)N)NC(=O)[C@H](CCCNC(=N)N)NC(=O)[C@H](CCCCN)NC(=O)[C@H](CCCCN)NC(=O)[C@H](CCCNC(=N)N)NC(=O)CNC(=O)[C@H](Cc1ccc(O)cc1)NC(C)=O)C(=O)N[C@H](C(=O)N[C@@H]1CCCCCC/C=C/CCC[C@@H](C(=O)N[C@@H](CCCNC(=N)N)C(=O)N[C@@H](CCCCN)C(=O)N[C@@H](CCCNC(=N)N)C(N)=O)NC(=O)[C@H](CCCCN)NC(=O)[C@H](CCC(=O)O)NC(=O)[C@H](C(C)C)NC(=O)[C@H](CC(=O)O)NC(=O)[C@H](CCC(=O)O)NC(=O)[C@H](CCC(N)=O)NC1=O)[C@@H](C)CC
Beclin-1
  Kd: 356 µM

## CC[C@H](C)[C@H](NC(=O)[C@H](CC(C)C)NC(=O)[C@H](CCCNC(=N)N)NC(=O)[C@H](CCCNC(=N)N)NC(=O)[C@H](CCCNC(=N)N)NC(=O)[C@H](CCCNC(=N)N)NC(=O)[C@H](CCC(N)=O)NC(=O)[C@H](CCCNC(=N)N)NC(=O)[C@H](CCCNC(=N)N)NC(=O)[C@H](CCCCN)NC(=O)[C@H](CCCCN)NC(=O)[C@H](CCCNC(=N)N)NC(=O)CNC(=O)[C@H](Cc1ccc(O)cc1)NC(C)=O)C(=O)N[C@@H](CO)C(=O)N[C@@H](CCC(=O)O)C(=O)N[C@@H](CC(C)C)C(=O)N[C@@H]1CCCCCC/C=C/CCC[C@@H](C(=O)N[C@@H](C)C(N)=O)NC(=O)[C@H](CCCNC(=N)N)NC(=O)[C@H](CCC(N)=O)NC(=O)[C@H](CCCCN)NC(=O)[C@H](CCC(=O)O)NC(=O)[C@H](CCCNC(=N)N)NC(=O)[C@H](CC(=O)O)NC1=O
Beclin-1
  Kd: 3.21 µM

## CC(=O)O[C@H]1C(=O)[C@@]2(C)[C@H]([C@H](OC(=O)c3ccccc3)[C@]3(O)C[C@H](OC(=O)[C@H](O)[C@@H](NC(=O)c4ccccc4)c4ccccc4)C(C)=C1C3(C)C)[C@]1(OC(C)=O)CO[C@@H]1C[C@@H]2O
SK-BR-3 [1]
  Activity: Active
SK-BR-3 [2]
  Activity: Active

## CC[C@H](C)[C@H](NC(=O)[C@@H](NC(=O)[C@H](CCCNC(=N)N)NC(=O)[C@H](CCCNC(=N)N)NC(=O)[C@H](CCCNC(=N)N)NC(=O)[C@H](CCCNC(=N)N)NC(=O)[C@H](CCC(N)=O)NC(=O)[C@H](CCCNC(=N)N)NC(=O)[C@H](CCCNC(=N)N)NC(=O)[C@H](CCCCN)NC(=O)[C@H](CCCCN)NC(=O)[C@H](CCCNC(=N)N)NC(=O)CNC(=O)[C@H](Cc1ccc(O)cc1)NC(C)=O)C(C)C)C(=O)N[C@@H](CCC(N)=O)C(=O)N[C@@H]1CCCCCC/C=C/CCC[C@@H](C(=O)N[C@@H](CCCNC(=N)N)C(=O)N[C@@H](CC(=O)O)C(=O)N[C@H](C(N)=O)C(C)C)NC(=O)[C@H](CCCCN)NC(=O)[C@H](CCC(=O)O)NC(=O)[C@H]([C@@H](C)CC)NC(=O)[C@H]([C@@H](C)CC)NC(=O)[C@H](C(C)C)NC(=O)[C@H](CC(C)C)NC1=O
HEK-293T
  Activity: Non-Toxic
SK-BR-3 [3]
  Activity: Dose-dependent effect
SK-BR-3 [4]
  IC50: 13.6 µM

## CC[C@H](C)[C@H](NC(=O)[C@H](CC(C)C)NC(=O)[C@H](CCCNC(=N)N)NC(=O)[C@H](CCCNC(=N)N)NC(=O)[C@H](CCCNC(=N)N)NC(=O)[C@H](CCCNC(=N)N)NC(=O)[C@H](CCC(N)=O)NC(=O)[C@H](CCCNC(=N)N)NC(=O)[C@H](CCCNC(=N)N)NC(=O)[C@H](CCCCN)NC(=O)[C@H](CCCCN)NC(=O)[C@H](CCCNC(=N)N)NC(=O)CNC(=O)[C@H](Cc1ccc(O)cc1)NC(C)=O)C(=O)N[C@@H](CCC(N)=O)C(=O)N[C@@H]1CCCCCC/C=C/CCC[C@@H](C(=O)N[C@@H](CCCNC(=N)N)C(=O)N[C@@H](CCCCN)C(=O)N[C@@H](CCCNC(=N)N)C(N)=O)NC(=O)[C@H](CCCCN)NC(=O)[C@H](CCC(=O)O)NC(=O)[C@H](C(C)C)NC(=O)[C@H](CC(=O)O)NC(=O)[C@H](CCC(=O)O)NC(=O)[C@H](CCCNC(=N)N)NC1=O
Beclin-1
  Activity: inactive
